Source: US9771333B2, “Quinazoline derivatives as TAM family kinase inhibitors” (SIGNALCHEM LIFESCIENCES CORP., priority 2013, dated 2017)

Columns and labels:
Format in all cases: biochemical
human Mer = target: T1, human Mer (Homo sapiens, UniProt Q12866); assay: Kinase enzymatic activity assay (33P-radiolabeled phosphate transfer), Mer; details: recombinant human Mer (578-872), poly(4:1 glu:tyr) substrate, 30 minutes
T1 construct: GST (N); made in house; host or cells: Sf9 insect cells (baculovirus)
T1 sequence (Q12866 578-872): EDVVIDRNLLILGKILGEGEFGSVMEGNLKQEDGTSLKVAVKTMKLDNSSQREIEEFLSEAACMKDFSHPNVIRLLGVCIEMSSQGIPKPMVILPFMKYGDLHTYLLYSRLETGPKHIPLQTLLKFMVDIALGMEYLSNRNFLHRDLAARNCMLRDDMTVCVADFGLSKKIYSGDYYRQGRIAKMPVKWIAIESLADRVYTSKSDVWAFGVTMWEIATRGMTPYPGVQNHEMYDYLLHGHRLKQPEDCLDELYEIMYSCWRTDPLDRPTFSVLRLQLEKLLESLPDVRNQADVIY
Text: (§1) The identification of compounds of the invention as Tyro3, Axl or Mer inhibitors was readily accomplished using the recombinant human Tyro3, Axl and Mer proteins and employing the ^33P-radiolabeled phosphate transfer assay for which the procedure is known to someone skilled in the art or as described in Example 9.
(§2) Recombinant human Tyro3 (455-end, the gene accession number NM_006293), human Axl (473-end, the gene accession number NM_021913) and human Mer (578-872, the gene accession number NM_006343) were independently expressed by baculovirus in Sf9 insect cells using an N-terminal GST tag. The recombinant proteins were stored at −70° C. in a medium containing 50 mM Tris-HCl, pH 7.5, 150 mM NaCl, 10 mM glutathione, 0.1 mM EDTA, 0.25 mM DTT, 0.1 mM PMSF and 25% glycerol. The recombinant proteins were aliquoted into smaller quantities after centrifugation to avoid repeated handling and multiple freeze/thaw cycles for the most favorable performance.
(§3) Kinase Assay Buffer: This buffer solution consisted of the following components: 25 mM MOPS, pH 7.2, 12.5 mM β-glycerol-phosphate, 25 mM MgCl2, 5 mM EGTA, 2 mM EDTA and DTT 0.25 mM which was added prior to use.
(§4) Kinase Dilution Buffer: Kinase Assay Buffer was diluted at a 1:4 ratio (5× dilution) with distilled water.
(§5) [^33P]-ATP assay cocktail: In a designated radioactive working area, a 250 μM [^33P]-ATP assay cocktail was prepared by the addition of the following components: 150 μL of 10 mM ATP stock solution, 100 μL [^33P]-ATP (1 mci/100 μL), and 5.75 mL of kinase assay buffer. This solution was stored in 1 mL aliquots at −20° C.
(§6) ATP stock solution (10 mM): The ATP stock solution was prepared by dissolving 55 mg of ATP in 10 mL of kinase assay buffer. It was stored in 200 μL aliquots at −20° C.
(§7) Active Kinase Stock Solution: The active recombinant kinase protein (0.1 μg/μL) was diluted with Kinase Dilution Buffer and the activity was assayed using a serial dilution method. The specific activity is expressed in nmoL/min/mg.
(§8) Substrates: poly(4:1 glu:tyr) is the substrate used for each kinase Tyro3, Axl and Mer: The peptide substrate was dissolved in water to give the final concentration of 1 mg/mL.
(§9) Test compound solution: Test compound was dissolved in DMSO to obtain a 10 mM solution. The assay solution was prepared by adding 5 μL of this solution to […] of 10% DMSO/water to obtain the final concentration of 50 μM.
(§10) The enzymatic activity of all three kinases was determined as follows. Using a 96-well plate, the wells were divided into three categories: Blank wells, […] and Test wells. In Test wells, 5 μL of the test compound solution and 5 μL of the substrate solution were added. In Control wells, 5 μL of 10% DMSO/water and 5 μL of the substrate solution were added. In Blank wells, 10 μL of 10% DMSO/water was added. To each well was added 10 μL of Active Kinase Stock Solution to make up the volume in each well to 20 μL. All test samples, controls and blanks were run in duplicate. The reaction was initiated by the addition of 5 μL of [^33P]-ATP assay cocktail, bringing the final volume up to 25 μL in every well. The mixture was incubated at room temperature for 30 minutes. The reaction was terminated by transferring 10 μL of the reaction mixture into a Millipore MultiScreen filter plate (cat. number MSPHN6B50). The filter plate was washed in a 1% phosphoric acid solution with constant gentle shaking for 15 minutes and this step was repeated once. After the plate was dried in air, scintillation fluid was added to each well and the radioactivity in each well in CPM was counted by a Microbeta TriLux. The corrected CPM in each test well was determined by subtracting the average value of Blank well values. Percentage of inhibition of the kinase enzymatic activity by the test compound was determined using the following formula: […]
(§11) The IC50 values were determined in a similar way following a serial dilution of the test compound. […]

human Axl = target: T2, human Axl (Homo sapiens, UniProt P30530); assay: Kinase enzymatic activity assay (33P-radiolabeled phosphate transfer), Axl; details: recombinant human Axl (473-end), poly(4:1 glu:tyr) substrate, 30 minutes
T2 construct: GST (N); made in house; host or cells: Sf9 insect cells (baculovirus)
T2 sequence (P30530 473-894 limits assumed): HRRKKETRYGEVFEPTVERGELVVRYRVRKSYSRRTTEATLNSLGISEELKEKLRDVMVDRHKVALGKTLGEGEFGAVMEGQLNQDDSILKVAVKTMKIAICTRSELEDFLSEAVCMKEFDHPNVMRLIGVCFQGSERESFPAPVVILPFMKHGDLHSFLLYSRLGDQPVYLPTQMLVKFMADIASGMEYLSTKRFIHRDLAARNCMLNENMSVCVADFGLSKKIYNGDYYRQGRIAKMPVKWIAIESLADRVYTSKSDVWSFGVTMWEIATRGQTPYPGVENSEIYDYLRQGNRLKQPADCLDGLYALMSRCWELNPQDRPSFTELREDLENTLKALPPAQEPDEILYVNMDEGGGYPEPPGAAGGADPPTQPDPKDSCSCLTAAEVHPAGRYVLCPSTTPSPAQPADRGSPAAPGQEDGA
Text: as §1, §2, §3, §4, §5, §6, §7, §8, §9, §10, §11

human Tyro3 = target: T3, human Tyro3 (Homo sapiens, UniProt Q06418); assay: Kinase enzymatic activity assay (33P-radiolabeled phosphate transfer), Tyro3; details: recombinant human Tyro3 (455-end), poly(4:1 glu:tyr) substrate, 30 minutes
T3 construct: GST (N); made in house; host or cells: Sf9 insect cells (baculovirus)
T3 sequence (Q06418 455-890 limits assumed): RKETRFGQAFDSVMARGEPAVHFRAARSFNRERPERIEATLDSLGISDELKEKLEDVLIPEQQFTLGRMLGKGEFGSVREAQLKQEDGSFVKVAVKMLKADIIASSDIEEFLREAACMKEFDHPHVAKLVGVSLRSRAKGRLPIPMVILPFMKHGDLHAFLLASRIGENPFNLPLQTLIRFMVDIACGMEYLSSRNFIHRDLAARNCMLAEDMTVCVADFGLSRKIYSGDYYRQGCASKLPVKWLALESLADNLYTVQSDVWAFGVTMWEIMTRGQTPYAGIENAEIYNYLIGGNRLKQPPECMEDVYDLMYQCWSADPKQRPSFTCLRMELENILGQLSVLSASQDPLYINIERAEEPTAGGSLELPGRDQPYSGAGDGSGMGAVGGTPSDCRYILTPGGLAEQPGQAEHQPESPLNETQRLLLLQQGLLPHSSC
Text: as §1, §2, §3, §4, §5, §6, §7, §8, §9, §10, §11

SMILES | IC50 (human Mer) | IC50 (human Axl) | IC50 (human Tyro3)
COCCN1CCN(c2cc(OC3CCOCC3)c3c(Oc4ccc(F)cc4Cl)ncnc3c2)CC1 [Example 2.10, 4-(2-chloro-4-fluorophenoxy)-7-(4-(2-methoxyethyl)piperazin-1-yl)-5-((tetrahydro-2H-pyran-4-yl)oxy)quinazoline] | 500 to 1000 nM | 1000 to 10000 nM | < 500 nM
Fc1ccc(Oc2ncnc3cc(OCCCN4CCOCC4)cc(OC4CCOCC4)c23)c(Cl)c1 [Example 2.5, 4-(3-((4-(2-chloro-4-fluorophenoxy)-5-((tetrahydro-2H-pyran-4-yl)oxy)quinazolin-7-yl)oxy)propyl)morpholine] | < 500 nM | 500 to 1000 nM | < 500 nM
CN1CCC(CCOc2cc(OC3CCOCC3)c3c(Oc4ccc(F)cc4Cl)ncnc3c2)CC1 [Example 2, 4-(2-chloro-4-fluorophenoxy)-7-(2-(1-methylpiperidin-4-yl)ethoxy)-5-((tetrahydro-2H-pyran-4-yl)oxy)quinazoline] | < 500 nM | 1000 to 10000 nM | < 500 nM
Cc1cnc(Nc2ncnc3cc(OCC4CCN(C)CC4)cc(OC4CCOCC4)c23)s1 [Example 2.43, 5-methyl-N-(7-((1-methylpiperidin-4-yl)methoxy)-5-((tetrahydro-2H-pyran-4-yl)oxy)quinazolin-4-yl)thiazol-2-amine] | < 500 nM | < 500 nM | 1000 to 10000 nM
CN1CCC(COc2cc(OC3CCOCC3)c3c(Nc4cc(C(F)(F)F)no4)ncnc3c2)CC1 [Example 2.58, N-(7-((1-methylpiperidin-4-yl)methoxy)-5-((tetrahydro-2H-pyran-4-yl)oxy)quinazolin-4-yl)-3-(trifluoromethyl)isoxazol-5-amine] | 1000 to 10000 nM | 500 to 1000 nM | > 10000 nM
CC(C)Oc1ncnc2cc(OCC3CCN(C)CC3)cc(OC3CCOCC3)c12 [Example 6, 4-isopropoxy-7-((1-methylpiperidin-4-yl)methoxy)-5-((tetrahydro-2H-pyran-4-yl)oxy)quinazoline] | < 500 nM | < 500 nM | < 500 nM
CN(C)CCCOc1cc(OC2CCOCC2)c2c(Oc3ccc(F)cc3Cl)ncnc2c1 [Example 2.62, 3-((4-(2-chloro-4-fluorophenoxy)-5-((tetrahydro-2H-pyran-4-yl)oxy)quinazolin-7-yl)oxy)-N,N-dimethylpropan-1-amine] | < 500 nM | 1000 to 10000 nM | < 500 nM
COCCOc1cc(OCCN2CCN(C)CC2)cc2ncnc(Sc3ccc(Cl)cc3)c12 [Example 4, 4-((4-chlorophenyl)thio)-5-(2-methoxyethoxy)-7-(2-(4-methylpiperazin-1-yl)ethoxy)quinazoline] | > 10000 nM | > 10000 nM | 1000 to 10000 nM
CN(C)CCN(C)CCOc1cc(OC2CCOCC2)c2c(Oc3ccc(F)cc3Cl)ncnc2c1 [Example 2.15, N^1-(2-((4-(2-chloro-4-fluorophenoxy)-5-((tetrahydro-2H-pyran-4-yl)oxy)quinazolin-7-yl)oxy)ethyl)-N^1,N^2,N^2-trimethylethane-1,2-diamine] | 500 to 1000 nM | 1000 to 10000 nM | 500 to 1000 nM
COc1cc(OCC2CCN(C)CC2)cc2ncnc(Oc3ccc(F)cc3Cl)c12 [Example 2.34, 4-(2-chloro-4-fluorophenoxy)-5-methoxy-7-((1-methylpiperidin-4-yl)methoxy)quinazoline] | 500 to 1000 nM | 1000 to 10000 nM | < 500 nM
CN1CCN(CCOc2cc(OC3CCOCC3)c3c(Oc4cccc(CC(=O)NCc5ccccc5)c4)ncnc3c2)CC1 [Example 2.33, N-benzyl-2-(3-((7-(2-(4-methylpiperazin-1-yl)ethoxy)-5-((tetrahydro-2H-pyran-4-yl)oxy)quinazolin-4-yl)oxy)phenyl)acetamide] | > 10000 nM | 1000 to 10000 nM | 500 to 1000 nM
COC(=O)Cc1cccc(Oc2ncnc3cc(OCCCN4CCOCC4)cc(OC)c23)c1 [Example 2.27, methyl 2-(3-((5-methoxy-7-(3-morpholinopropoxy)quinazolin-4-yl)oxy)phenyl)acetate] | 1000 to 10000 nM | > 10000 nM | 1000 to 10000 nM

Now from value to molecule:

IC50 (human Mer) | IC50 (human Axl) | IC50 (human Tyro3) | SMILES
> 10000 nM | 1000 to 10000 nM | 1000 to 10000 nM | COCCOc1cc(OCCN2CCN(C)CC2)cc2ncnc(Sc3cc(F)cc(F)c3)c12 [Example 4.3, 4-((3,5-difluorophenyl)thio)-5-(2-methoxyethoxy)-7-(2-(4-methylpiperazin-1-yl)ethoxy)quinazoline]
< 500 nM | 500 to 1000 nM | < 500 nM | CN1CCC(COc2cc(OC3CCOCC3)c3c(Oc4ccc(F)cc4Cl)ncnc3c2)CC1 [Example 4.7, 4-(2-chloro-4-fluorophenoxy)-7-((1-methylpiperidin-4-yl)methoxy)-5-((tetrahydro-2H-pyran-4-yl)oxy)quinazoline]
1000 to 10000 nM | > 10000 nM | < 500 nM | CN1CCN(c2cc(OCCCN3CCOCC3)cc3ncnc(Oc4ccc(F)cc4Cl)c23)CC1 [Example 4.9, 4-(3-((4-(2-chloro-4-fluorophenoxy)-5-(4-methylpiperazin-1-yl)quinazolin-7-yl)oxy)propyl)morpholine]
500 to 1000 nM | > 10000 nM | 500 to 1000 nM | COc1cc(OC2CCOCC2)c2c(Oc3ccc(F)cc3Cl)ncnc2c1 [Example 3.1, 4-(2-chloro-4-fluorophenoxy)-7-methoxy-5-((tetrahydro-2H-pyran-4-yl)oxy)quinazoline]
